biological target: FGFR3 enzyme (Homo sapiens (Human), UniProt P22607); assay: FGFR Enzymatic Assay (peptide phosphorylation, FRET), FGFR3; format: biochemical; conditions: IC50 ratio showing FGFR3 selectivity; pre-incubated for 4 hours
Experimental: The inhibitor potency of the exemplified compounds was measured in an enzyme assay that measures peptide phosphorylation using FRET measurements to detect product formation. Inhibitors were serially diluted in DMSO and a volume of 0.5 μL was transferred to the wells of a 384-well plate.
GraphPad prism3 was used to analyze the data.

Sequence of FGFR3 enzyme (P22607 23-806): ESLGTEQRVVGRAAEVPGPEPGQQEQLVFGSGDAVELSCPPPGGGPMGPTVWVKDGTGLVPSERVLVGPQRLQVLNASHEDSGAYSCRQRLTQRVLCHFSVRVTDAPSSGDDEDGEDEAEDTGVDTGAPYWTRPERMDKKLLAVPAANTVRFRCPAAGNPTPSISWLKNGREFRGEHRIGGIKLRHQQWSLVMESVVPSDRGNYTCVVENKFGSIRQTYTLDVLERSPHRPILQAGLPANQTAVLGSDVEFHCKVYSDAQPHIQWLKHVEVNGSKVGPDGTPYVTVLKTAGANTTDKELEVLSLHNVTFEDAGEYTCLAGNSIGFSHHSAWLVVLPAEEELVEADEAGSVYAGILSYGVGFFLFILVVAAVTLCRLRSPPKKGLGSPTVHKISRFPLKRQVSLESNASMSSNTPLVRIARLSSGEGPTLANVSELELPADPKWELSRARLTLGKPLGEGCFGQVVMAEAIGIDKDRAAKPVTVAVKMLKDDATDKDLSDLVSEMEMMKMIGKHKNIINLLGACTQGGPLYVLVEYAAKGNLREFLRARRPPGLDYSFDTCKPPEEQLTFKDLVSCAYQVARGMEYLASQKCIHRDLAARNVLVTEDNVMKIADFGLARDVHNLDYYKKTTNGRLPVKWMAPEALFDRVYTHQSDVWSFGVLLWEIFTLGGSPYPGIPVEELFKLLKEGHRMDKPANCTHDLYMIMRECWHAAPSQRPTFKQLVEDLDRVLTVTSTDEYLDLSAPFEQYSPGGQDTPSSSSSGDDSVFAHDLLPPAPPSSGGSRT

SMILES	FGFR1/FGFR3	FGFR4/FGFR3
COc1cc(OC)c(F)c(N2Cc3cnc(-c4cn(C)nc4C)cc3N(c3ncccn3)C2=O)c1F [Example 105, 3-(2,6-difluoro-3,5-dimethoxyphenyl)-7-(1,3-dimethyl-1H-pyrazol-4-yl)-1-(pyrimidin-2-yl)-3,4-dihydropyrido[4,3-d]pyrimidin-2(1H)-one]	>3	>5
CCc1cnc(N2C(=O)N(c3c(F)c(OC)cc(OC)c3F)Cc3cnc(-c4cn(C)nc4C)cc32)cn1 [Example 106, 3-(2,6-difluoro-3,5-dimethoxyphenyl)-7-(1,3-dimethyl-1H-pyrazol-4-yl)-1-(5-ethylpyrazin-2-yl)-3,4-dihydropyrido[4,3-d]pyrimidin-2(1H)-one]	>3	>5
COc1cc(OC)c(F)c(N2Cc3cnc(-c4cn(C)nc4C)cc3N(c3cnc(C)cn3)C2=O)c1F [Example 107, 3-(2,6-difluoro-3,5-dimethoxyphenyl)-7-(1,3-dimethyl-1H-pyrazol-4-yl)-1-(5-methylpyrazin-2-yl)-3,4-dihydropyrido[4,3-d]pyrimidin-2(1H)-one]	>3	>10
COc1cc(OC)c(F)c(N2Cc3cnc(-c4cn(C)nc4C)cc3N(C[C@H]3CCOC3)C2=O)c1F [Example 108, (R)-3-(2,6-difluoro-3,5-dimethoxyphenyl)-7-(1,3-dimethyl-1H-pyrazol-4-yl)-1-((tetrahydrofuran-3-yl)methyl)-3,4-dihydropyrido[4,3-d]pyrimidin-2(1H)-one]	>3	>3
COc1cccc(N2C(=O)N(c3c(F)c(OC)cc(OC)c3F)Cc3cnc(-c4cn(C)nc4C)cc32)c1 [Example 109, 3-(2,6-difluoro-3,5-dimethoxyphenyl)-7-(1,3-dimethyl-1H-pyrazol-4-yl)-1-(3-methoxyphenyl)-3,4-dihydropyrido[4,3-d]pyrimidin-2(1H)-one]	>3	>10
COc1cc(OC)c(F)c(N2Cc3cnc(-c4cn(C)nc4C)cc3N(c3ccccc3F)C2=O)c1F [Example 110, 3-(2,6-difluoro-3,5-dimethoxyphenyl)-7-(1,3-dimethyl-1H-pyrazol-4-yl)-1-(2-fluorophenyl)-3,4-dihydropyrido[4,3-d]pyrimidin-2(1H)-one]	>3	>5
CNS(=O)(=O)c1cccc(N2C(=O)N(c3c(F)c(OC)cc(OC)c3F)Cc3cnc(-c4cn(C)nc4C)cc32)c1 [Example 111, 3-(3-(2,6-difluoro-3,5-dimethoxyphenyl)-7-(1,3-dimethyl-1H-pyrazol-4-yl)-2-oxo-3,4-dihydropyrido[4,3-d]pyrimidin-1(2H)-yl)-N-methylbenzenesulfonamide]	>3	>5
COc1cnc(N2C(=O)N(c3c(F)c(OC)cc(OC)c3F)Cc3cnc(-c4cn(C)nc4C)cc32)cn1 [Example 112, 3-(2,6-difluoro-3,5-dimethoxyphenyl)-7-(1,3-dimethyl-1H-pyrazol-4-yl)-1-(5-methoxypyrazin-2-yl)-3,4-dihydropyrido[4,3-d]pyrimidin-2(1H)-one]	>3	>5
COc1cc(OC)c(F)c(N2Cc3cnc(-c4cn(C)nc4C)cc3N(c3ccc(C(=O)N(C)C)cc3)C2=O)c1F [Example 113, 4-(3-(2,6-difluoro-3,5-dimethoxyphenyl)-7-(1,3-dimethyl-1H-pyrazol-4-yl)-2-oxo-3,4-dihydropyrido[4,3-d]pyrimidin-1(2H)-yl)-N,N-dimethylbenzamide]	>3	>5
COc1cc(OC)c(F)c(N2Cc3cnc(-c4cn(C)nc4C)cc3N(CCc3cnn(C)c3)C2=O)c1F [Example 114, 3-(2,6-difluoro-3,5-dimethoxyphenyl)-7-(1,3-dimethyl-1H-pyrazol-4-yl)-1-(2-(1-methyl-1H-pyrazol-4-yl)ethyl)-3,4-dihydropyrido[4,3-d]pyrimidin-2(1H)-one]	>3	>5

From US10251892B2, “Bicyclic heterocycles as FGFR4 inhibitors” (Incyte Corporation, priority 2015, dated 2019)
